These results are taken from ChEMBL document CHEMBL1148751, “Optimization of the indenone ring of indenoisoquinoline topoisomerase I inhibitors” (2007).

Common to all, as to type: functional
The test system of assay [1] is MDA-MB-435. Put plainly: Cytotoxicity against human MDA-MB-435 cells.
For assay [2], the system named is DU-145. As to the kind of experiment: Cytotoxicity against human DU145 cells.
Assay [3] deals with SF-539. Put plainly: Cytotoxicity against human SF539 cells.
In assay [4] the test system is UACC-62. Put plainly: Cytotoxicity against human UACC62 cells.
The subject of assay [5] is OVCAR-3. Put plainly: Cytotoxicity against human OVCAR-3 cells.
Assay [6] has as its system HCT-116. As to the kind of experiment: Cytotoxicity against human HCT116 cells.
Assay [7] has as its system SN12C. As to the kind of experiment: Cytotoxicity against human SN12C cells.
The test system of assay [8] is HOP-62. Put plainly: Cytotoxicity against human HOP62 cells.

By GI50 is commonly meant the concentration at which growth is held to half of that of the control.

Consider `COc1cc2c3c(n(CCCCl)c(=O)c2cc1OC)-c1ccccc1C3=O`, for which the 50% growth inhibitory concentration (GI50) in assay [1] is greater than 100 µM; in assay [2], greater than 100 µM; in assay [3], 14.1 µM; in assay [4], 12.3 µM; in assay [5], 10.7 µM; in assay [6] it was 2.46 µM. In addition, the figures for the GI50 in assay [7] and in assay [8] were greater than 100 µM and 4.47 µM, respectively.

As to `COc1cc2c3c(n(CCCCl)c(=O)c2cc1OC)-c1ccc(C#N)cc1C3=O`, the GI50 in assay [1] was greater than 100 µM; in assay [2] it was 10.7 µM; in assay [3], 7.24 µM; in assay [4], 6.76 µM; in assay [5], 12.9 µM; in assay [6], 15.1 µM. Besides, the results for the GI50 in assay [7] and in assay [8] were 22.9 µM and 14.8 µM, respectively.

For the compound `[N-]=[N+]=NCCCn1c2c(c3ccc([N+](=O)[O-])cc3c1=O)C(=O)c1cc(Br)ccc1-2`, the GI50 in assay [1] is greater than 100 µM; in assay [2], 14.8 µM; in assay [3] it was greater than 100 µM; in assay [4], greater than 100 µM; in assay [5], greater than 100 µM; in assay [6], 3.02 µM. Further, the concentration for 50% growth inhibition (GI50) was greater than 100 µM in assay [7] and 56.2 µM in assay [8].

Take `[N-]=[N+]=NCCCn1c2c(c3ccc([N+](=O)[O-])cc3c1=O)C(=O)c1cc(I)ccc1-2`: the GI50 was 34.7 µM in assay [1]; 1.78 µM in assay [2]; 2.24 µM in assay [3]; 3.31 µM in assay [4]; 18.2 µM in assay [5]; 2.14 µM in assay [6]. Moreover, the results for the GI50 in assay [7] and in assay [8] were 3.89 µM and 1.82 µM, respectively.

Regarding `N#Cc1ccc2c(c1)C(=O)c1c-2n(CCCN=[N+]=[N-])c(=O)c2cc([N+](=O)[O-])ccc12`, the GI50 was greater than 50.1 µM in assay [1]; 7.08 µM in assay [2]; greater than 50.1 µM in assay [3]; 3.63 µM in assay [4]; greater than 50.1 µM in assay [5]; 3.89 µM in assay [6]. In addition, the values for the GI50 in assay [7] and in assay [8] were 46.8 µM and 15.1 µM, respectively.

Consider `COc1cc2c3c(n(CCCBr)c(=O)c2cc1OC)-c1ccc(NC(C)=O)cc1C3=O`, for which the concentration for 50% growth inhibition (GI50) in assay [1] was 13.8 µM; in assay [2], 4.68 µM; in assay [3], 3.8 µM; in assay [4], 2.09 µM; in assay [5], 4.36 µM; in assay [6], 2.57 µM. For the same compound, the figures for the GI50 in assay [7] and in assay [8] were 13.8 µM and 1.29 µM, respectively.

For `CCc1ccc2c(c1)C(=O)c1c-2n(CCCN)c(=O)c2cc([N+](=O)[O-])ccc12`, the GI50 in assay [1] came out at 1.55 µM; in assay [2], 0.776 µM; in assay [3] it was 1.58 µM; in assay [4], 1.48 µM; in assay [5], 1.58 µM; in assay [6] it was 0.575 µM. For the same compound, the GI50 in assay [7] stood at 1.48 µM; in assay [8] it was 1.38 µM.

For the compound `NCCCn1c2c(c3ccc([N+](=O)[O-])cc3c1=O)C(=O)c1cc(-c3ccccc3)ccc1-2`, the 50% growth inhibitory concentration (GI50) in assay [1] is 0.468 µM; in assay [2] it was 0.2 µM; in assay [3] it was 1.62 µM; in assay [4], 1.51 µM; in assay [5], 1.82 µM; in assay [6] it was 0.178 µM. For the same compound, the GI50 is 0.437 µM in assay [7] and 0.186 µM in assay [8].

For `COc1ccc2c(c1)C(=O)c1c-2n(CCCCl)c(=O)c2cc(OC)c(OC)cc12`, the concentration for 50% growth inhibition (GI50) in assay [1] was 37.2 µM; in assay [2] it was 4.07 µM; in assay [3], 6.76 µM; in assay [4], 3.02 µM; in assay [5], 70.8 µM; in assay [6] it was 8.32 µM. Further, the GI50 stood at 5.5 µM in assay [7] and 4.07 µM in assay [8].

`NCCCn1c2c(c3ccc([N+](=O)[O-])cc3c1=O)C(=O)c1cc(I)ccc1-2`: the GI50 in assay [1] is 0.224 µM; in assay [2], less than 0.01 µM; in assay [3] it was 0.044 µM; in assay [4] it was less than 0.01 µM; in assay [5] it was 1.2 µM; in assay [6], less than 0.01 µM. The concentration for 50% growth inhibition (GI50) in assay [7] was less than 0.01 µM; in assay [8] it was 0.021 µM.

As for `NCCCn1c2c(c3ccc([N+](=O)[O-])cc3c1=O)C(=O)c1cc(F)ccc1-2`, the GI50 is 0.081 µM in assay [1]; less than 0.01 µM in assay [2]; 0.028 µM in assay [3]; less than 0.01 µM in assay [4]; 0.052 µM in assay [5]; less than 0.01 µM in assay [6]. For the same compound, the 50% growth inhibitory concentration (GI50) in assay [7] was 0.034 µM; in assay [8], less than 0.01 µM.

With `CSc1ccc2c(c1)C(=O)c1c-2n(CCCN)c(=O)c2cc([N+](=O)[O-])ccc12`, the concentration for 50% growth inhibition (GI50) was 0.204 µM in assay [1]; less than 0.01 µM in assay [2]; less than 0.01 µM in assay [3]; less than 0.01 µM in assay [4]; 0.17 µM in assay [5]; 0.023 µM in assay [6]. Moreover, the GI50 is 0.162 µM in assay [7] and less than 0.01 µM in assay [8].

On to `NCCCn1c2c(c3ccc([N+](=O)[O-])cc3c1=O)C(=O)c1cc(Br)ccc1-2`, for which the GI50 in assay [1] was 0.162 µM; in assay [2], less than 0.01 µM; in assay [3], 0.011 µM; in assay [4], less than 0.01 µM; in assay [5], 0.295 µM; in assay [6], 0.048 µM. The GI50 in assay [7] is less than 0.01 µM; in assay [8] it was 0.033 µM.

For `COc1cc2c3c(n(CCCN=[N+]=[N-])c(=O)c2cc1OC)-c1ccc(NC(C)=O)cc1C3=O`, the GI50 in assay [1], in assay [2], in assay [3], in assay [4], in assay [5] and in assay [6] was 50.1 µM throughout. Moreover, the GI50 in assay [7] and in assay [8] was 50.1 µM throughout.

Turning to `[N-]=[N+]=NCCCn1c2c(c3ccc([N+](=O)[O-])cc3c1=O)C(=O)c1cc(F)ccc1-2`, the GI50 in assay [1] was 2.88 µM; in assay [2], 0.437 µM; in assay [3], 0.457 µM; in assay [4], 0.38 µM; in assay [5], 3.47 µM; in assay [6], 0.309 µM. The 50% growth inhibitory concentration (GI50) in assay [7] worked out at 0.302 µM; in assay [8], 0.251 µM.

As to `CCOc1ccc2c(c1)C(=O)c1c-2n(CCCN)c(=O)c2cc([N+](=O)[O-])ccc12`, the concentration for 50% growth inhibition (GI50) in assay [1] was 0.2 µM; in assay [2], 0.011 µM; in assay [3], 0.035 µM; in assay [4], 0.055 µM; in assay [5], 0.457 µM; in assay [6], 0.174 µM. For the same compound, the GI50 in assay [7] was found to be 0.055 µM; in assay [8] it was 0.012 µM.

In the case of `COc1cc2c3c(n(CCCBr)c(=O)c2cc1OC)-c1ccc(F)cc1C3=O`, the GI50 in assay [1] is 43.7 µM; in assay [2], 4.36 µM; in assay [3], 3.55 µM; in assay [4] it was 3.89 µM; in assay [5], 24.5 µM; in assay [6] it was 5.75 µM. Besides, the figures for the GI50 in assay [7] and in assay [8] were 15.5 µM and 4.17 µM, respectively.

`COC(=O)c1ccc2c(c1)C(=O)c1c-2n(CCCN=[N+]=[N-])c(=O)c2cc([N+](=O)[O-])ccc12`: the GI50 is greater than 100 µM in assay [1]; 70.8 µM in assay [2]; 53.7 µM in assay [3]; 37.1 µM in assay [4]; greater than 100 µM in assay [5]; 47.9 µM in assay [6]. Moreover, the GI50 in assay [7] is greater than 100 µM; in assay [8], 25.7 µM.
